In EP3785696A1, “COSMETIC USE OF AROMATIC FORMAMIDINE DERIVATIVES” (B.R.A.I.N. Biotechnology Research And Information Network AG, priority 2019, dated 2021):

What was measured:
Format in all cases: cell-based
[1] = target: T1, MC1-R (Homo sapiens, UniProt Q01726, A105V); experiment: Determination of compound activity on MC1-R (antagonist testing, Fluo-4 Ca2+ fluorescence in HEK293/Gα15/MC1-R cells); settings: 25 µM
T1 construct: MC1-R cDNA expression results in the corresponding protein (NP_002377.4); expressed in transfected cells
T1 sequence (Q01726 1-317 A105V): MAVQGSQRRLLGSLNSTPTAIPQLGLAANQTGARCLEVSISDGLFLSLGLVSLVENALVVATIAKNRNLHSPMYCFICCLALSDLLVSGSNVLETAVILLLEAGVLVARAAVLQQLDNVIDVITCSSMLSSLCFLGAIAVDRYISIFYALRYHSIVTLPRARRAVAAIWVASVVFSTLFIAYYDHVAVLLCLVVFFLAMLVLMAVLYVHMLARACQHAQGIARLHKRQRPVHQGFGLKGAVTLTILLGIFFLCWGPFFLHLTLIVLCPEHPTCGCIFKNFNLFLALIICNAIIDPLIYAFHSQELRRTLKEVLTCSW
Excerpt: A MC1-R expressing cell line for assessing melanogenesis modulating activity was established based on engineered HEK 293 cells, stably expressing the murine G-protein Gα15 (NM_010304.3). The promiscuous Gα15 protein couples to MC1-R and therefore links receptor stimulation to Ca^2+-signaling.
To achieve a stable expression of the target receptor this HEK293/Gα15 cell line was further stably transfected with an expression vector for the human MC1-R receptor. MC1-R cDNA expression results in the corresponding protein (NP_002377.4 with an amino acid replacement at position 105 (A105V)).
HEK293 cells stably expressing the target receptor MC1-R and the promiscuous murine Gα15 protein (HEK293/Gα15/MC1-R) were established as described above. […] Changes in internal Ca^2+-concentration are measured via the Ca^2+-sensitive fluorescent dye Fluo-4 (2-{[2-(2-{5-[bis(carboxymethyl)amino]-2-methyl-phenoxy}ethoxy)-4-(2,7-difluoro-6-hydroxy-3-oxo-3H-xanthen-9-yl)phenyl](carboxymethyl)amino}acetic acid) in a fluorescence plate reader (FLEX-Station, Molecular Devices) at an excitation wavelength of 488nm and emission of 535nm.
Recombinant HEK293/Gα15/MC1-R cells were cultured in DMEM with 10% FBS, 2mM glutamine, 1,3 mg/ml geneticin and 5 µg/ml blasticidin. Cells were seeded in 96 well, poly-D-lysine coated, black well/ clear bottom fluorescence plates in medium without antibiotics. […]

[2] = target: T2, MC4-R (Homo sapiens, UniProt P32245); experiment: Determination of compound activity on MC4-R (antagonist testing, Fluo-4 Ca2+ fluorescence in HEK293/Gα15 cells); settings: Figure 2; 25 µM, added 10 min prior stimulation with αMSH (EC80)
T2 construct: MC4-R cDNA expression results in MC4-R protein NP_005903.2; expressed in transfected cells; host or cells: HEK293/Gα15 cells
Excerpt: (§1) HEK293 cells stably expressing the target receptor MC4-R and the promiscuous murine Gα15 protein were established on basis of the above-mentioned HEK293/Gα15 cell line. These cells were further transfected with an expression vector comprising the human MC4-receptor cDNA. MC4-R cDNA expression results in MC4-R protein NP_005903.2.
(§2) Stimulation of MC4-R with αMSH increases intracellular Ca^2+-concentration, inhibition of MC4-R decreases these αMSH induced Ca^2+-responses. Changes in intracellular Ca^2+-levels were measured via the Ca^2+-sensitive fluorescent dye Fluo-4 in a fluorescent plate reader.
(§3) For antagonist-testing, test compound was added to cells with a final concentration of 25 µM 10 min prior stimulation with αMSH (using EC80). The threshold for antagonistic activity was defined as 70% of the positive control αMSH (the EC80 value is set as 100%), and the assay was accepted as valid if the standard deviation of the αMSH signal is 10% or less.

[3] = test system: MelanoDerm™ (Mattek Corp.) tissues; experiment: MelanoDerm™ assay: melanin content in reconstructed skin tissues; settings: 336 h, 14 days of treatment, melanin content normalized on protein content, read-out: % inhibition relative to negative control
Protocol: Phenotypic skin lightening was assessed in reconstructed skin using MelanoDerm™ (Mattek Corp.) tissues (Figure 1).
Controls were: negative control (ultrapure water) and positive control (10 µM Ketoconazol). Test compounds were prepared in DMSO with a concentration of 10 mM and diluted in EPI-100-LLM medium (Mattek Corp.) to a final concentration of 25 µM.
MelanoDerm™ tissues were equilibrated in pre-warmed EPI-100-LLMM medium (6-Well plates, 5 ml per well) for 1 h (37°C, 5 % CO2) before treatment. Test compounds were applied systemically by addition into the culture medium. […] At the end of the treatment, tissues were analyzed via macroscopic/microscopic images and in vitro assay, for viability and for melanin content. […] Cytotoxicity was assessed using microscopic tissue images (10× magnification). Tissue viability as a result of test compound relative to negative control was determined using Cell Proliferation Reagent WST-1 (cat# 05015944001, Roche). For melanin quantitation tissues were submerged for 5 min in phosphate buffered saline (PBS, 5 ml), removed from PBS and rinsed with additional 2 ml PBS. […] All incubated samples were centrifuged at 13,000 rpm for 5 min and the optical density of the supernatant (200 µl) was measured at 490 nm. The amount of melanin (µg) from each tissue sample was determined using the melanin standard samples calibration curve. […]

[4] = target: T3, MC3-R (Homo sapiens, UniProt P41968); experiment: Determination of compound activity on MC3-R (antagonist testing, Fluo-4 Ca2+ fluorescence in HEK293/Gα15 cells); settings: Figure 2; 25 µM, added 10 min prior stimulation with αMSH (EC80)
T3 construct: MC3-R cDNA expression results in MC3-R protein NP_063941.3; expressed in transfected cells; host or cells: HEK293/Gα15 cells
Excerpt: as §1, with “MC3-R” for “MC4-R”, “MC3-receptor” for “MC4-receptor”, “NP_063941.3.” for “NP_005903.2.”
Stimulation of MC3-R with αMSH increases intracellular Ca^2+-concentration, inhibition of MC3-R decreases these αMSH induced Ca^2+-responses. Changes in intracellular Ca^2+-levels were measured via the Ca^2+-sensitive fluorescent dye Fluo-4 in a fluorescent plate reader.
as §3

[5] = target: T4, MC2-R (Homo sapiens, UniProt Q01718); experiment: Determination of compound activity on MC2-R (antagonist testing, Fluo-4 Ca2+ fluorescence in HEK293/Gα15 cells with MC2-R and MRAP); settings: Figure 2; 25 µM, added 10 min prior addition of ACTH (EC80)
T4 construct: MC2-R cDNA expression results in MC2-R protein NP_000520.1; expressed in transfected cells; host or cells: HEK293/Gα15 cells
Excerpt: HEK293 cells stably expressing the target receptor MC2-R, the accessory protein MRAP and the promiscuous murine Gα15 protein were established on basis of the above-mentioned HEK293/Gα15 cell line. These cells were further transfected with an expression vector comprising human MC2-receptor and additional MRAP (MC2-Receptor Accessory Protein) cDNA. MC2-R cDNA expression results in MC2-R protein NP_000520.1, MRAP cDNA expression results in MRAP protein NP_848932.1.
as §2, with “of MC2-R” for “of MC4-R”, “with ACTH (adrenocorticotropic hormone)” for “with αMSH”, “these ACTH” for “these αMSH”
as §3, with “addition of ACTH (EC80).” for “stimulation with αMSH (using EC80).”, “defined in this experiment” for “defined”, “ACTH” for “αMSH”

[6] = target: T5, MC5-R (Homo sapiens, UniProt P33032); experiment: Determination of compound activity on MC5-R (antagonist testing, Fluo-4 Ca2+ fluorescence in HEK293/Gα15 cells); settings: Figure 2; 25 µM, added 10 min prior stimulation with αMSH (EC80)
T5 construct: MC5-R cDNA expression results in MC5-R protein NP_005904.1; expressed in transfected cells; host or cells: HEK293/Gα15 cells
Excerpt: HEK293 cells stably expressing the target receptor MC5-R and the promiscuous murine Gα15 protein were established on the basis of the above-mentioned HEK293/Gα15 cell line. These cells were further transfected with an expression vector comprising the human MC5-receptor cDNA. MC5-R cDNA expression results in MC5-R protein NP_005904.1.
Stimulation of MC5-R with αMSH increases intracellular Ca^2+-concentration, inhibition of MC5-R decreases these αMSH induced Ca^2+-responses. Changes in intracellular Ca^2+-levels were measured via the Ca^2+-sensitive fluorescent dye Fluo-4 in a fluorescent plate reader.
as §3

T2 sequence (P32245 whole entry): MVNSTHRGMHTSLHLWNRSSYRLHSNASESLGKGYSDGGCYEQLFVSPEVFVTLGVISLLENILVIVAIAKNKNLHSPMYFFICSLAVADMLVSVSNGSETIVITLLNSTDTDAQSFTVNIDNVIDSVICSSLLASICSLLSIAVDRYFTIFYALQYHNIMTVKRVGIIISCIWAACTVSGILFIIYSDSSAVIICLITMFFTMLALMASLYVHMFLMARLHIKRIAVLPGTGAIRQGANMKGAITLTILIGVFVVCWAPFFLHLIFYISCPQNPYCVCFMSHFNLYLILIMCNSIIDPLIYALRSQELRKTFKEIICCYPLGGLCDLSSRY
T3 sequence (P41968 whole entry): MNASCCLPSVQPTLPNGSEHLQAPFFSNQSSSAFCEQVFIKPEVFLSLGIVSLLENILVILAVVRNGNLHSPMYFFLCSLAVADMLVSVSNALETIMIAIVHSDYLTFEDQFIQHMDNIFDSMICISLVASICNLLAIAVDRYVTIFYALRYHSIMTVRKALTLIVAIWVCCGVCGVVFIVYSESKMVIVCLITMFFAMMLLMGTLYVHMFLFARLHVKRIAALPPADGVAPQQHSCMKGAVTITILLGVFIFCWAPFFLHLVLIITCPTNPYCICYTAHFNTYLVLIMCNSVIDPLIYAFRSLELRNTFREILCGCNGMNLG
T5 sequence (P33032 whole entry): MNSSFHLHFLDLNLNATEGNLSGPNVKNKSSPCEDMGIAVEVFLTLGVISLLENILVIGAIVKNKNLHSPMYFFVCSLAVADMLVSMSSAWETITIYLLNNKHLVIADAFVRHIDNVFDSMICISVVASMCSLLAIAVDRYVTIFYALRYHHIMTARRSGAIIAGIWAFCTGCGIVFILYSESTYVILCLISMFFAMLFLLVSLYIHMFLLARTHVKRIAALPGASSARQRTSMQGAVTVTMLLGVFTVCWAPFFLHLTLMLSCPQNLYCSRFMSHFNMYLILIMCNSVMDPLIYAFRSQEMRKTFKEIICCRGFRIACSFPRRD
T4 sequence (Q01718 whole entry): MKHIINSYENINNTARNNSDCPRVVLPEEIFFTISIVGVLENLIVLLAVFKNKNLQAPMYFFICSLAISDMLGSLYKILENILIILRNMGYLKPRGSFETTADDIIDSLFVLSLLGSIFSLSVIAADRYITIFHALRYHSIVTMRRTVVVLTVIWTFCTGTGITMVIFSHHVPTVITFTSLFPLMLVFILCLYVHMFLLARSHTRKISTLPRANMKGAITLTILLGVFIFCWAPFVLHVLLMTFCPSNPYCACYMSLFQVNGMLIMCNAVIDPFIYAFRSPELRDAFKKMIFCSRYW
T4 sequence (Q8TCY5 whole entry partner): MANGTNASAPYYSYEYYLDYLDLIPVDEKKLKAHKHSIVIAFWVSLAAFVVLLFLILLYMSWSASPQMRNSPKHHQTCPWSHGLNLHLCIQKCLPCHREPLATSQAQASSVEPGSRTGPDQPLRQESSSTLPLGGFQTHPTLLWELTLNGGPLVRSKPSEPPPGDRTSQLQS

In the case of `COc1ccc(CSC(=N)N)cc1Br` [Compound (III)], the “reduce MC1R activation by” value ([1]; added 10 min prior stimulation with αMSH (EC80 set as 100%)) is reported as 51,3%, the “reduce MC1R activation to” value ([1]; Figure 2, αMSH (EC80) signal set as 100%, remaining activation) is reported as “about 50%” and the “activity of MC4R” value [2] is reported as “not significantly affected”. For the same molecule, the inhibition at 25 µM ([3]; 25 µM in culture medium) was -53.4%, the “activity of MC3R” value [4] was “not significantly affected” and the “activity of MC2R” value [5] was “not significantly affected”. For the same molecule, the “activity of MC5R” value [6] was “not significantly affected”.
Work on `CC(=O)N1CCN(c2ccc(OCC3COC(Cn4ccnc4)(c4ccc(Cl)cc4Cl)O3)cc2)CC1` (centres unmarked) [Ketoconazol, reference compound] yielded an inhibition at 10 µM ([3]; 10 µM in culture medium) of -70.9%.
